# From patent US20240116891A1, “MARALIXIBAT SOLID FORMS, INTERMEDIATES AND PROCESSES OF MAKING SAME” (MIRUM PHARMACEUTICALS, INC., priority 2022, published 2024)
# Tests used:
# Assay type in all cases: physicochemical
# [1] = Polymorph screening (stability of solid forms); details: for Relative stability of solid form in polymorph screening: under the conditions tested in this study
# Method: Form B was obtained from anti-solvent addition experiment with ACN/water from Form A. Form B was observed only as a wet cake, which convers back to Form A when air-dried. The XRPD, TGA/DSC, and PLM characterizations with the same parameters described above were performed. […] (FIG. 5). The weight loss started immediately with heat applied and it stopped 75° C.
# (§1) The approximate solubility of compound of Formula I (starting material, prepared as described above) was measured at RT in 20 different solvents. Approximately 2 mg of starting material were added into a 3-mL glass vial. Solvents were then added step wise into the vials until the solids were dissolved or a total volume of 1 mL was reached (Note: this is not thermodynamic solubility estimation, vortex and sonication were applied in between each solvent to accelerate the dissolution). Results summarized in Table 3-1 were used to guide the solvent selection for the polymorph screening. Beginning with the starting material, polymorph screening experiments were set up using methods of Slurry at different temperatures, Slow Cooling, Liquid and Solid Vapor Diffusion, Slow Evaporation, Anti-Solvent Addition and Ionic Liquid. The methods utilized, and crystal forms identified are summarized in Table 3-2 (Type A and Form A are used interchangeably and Type B and Form B are used interchangeably).
# As described above, polymorph screening experiments were set up using methods of Slurry at different temperatures, Slow Cooling, Liquid and Solid Vapor Diffusion, Slow Evaporation, Anti-Solvent Addition, and Ionic Liquid. Two types, Form A (anhydrate) and Form B (weak solvate) were obtained from the experiments.
# Further investigation was performed for Form B to better understand the phase origin.
# Other than Form B (i.e., Type B), no additional polymorph was observed during the rest of the screening. […]
# The approximate solubility of compound of Formula II (starting material) was determined at RT in 20 different solvents. […]
# The molecular structure was determined by single crystal X-ray diffraction.
# [2] = Characterization of anhydrate Form II of compound of Formula III
# Method: Anhydrate Form II of compound of Formula III was characterized by XRPD, TGA, DSC and HPLC. As shown in XRPD result (FIG. 11), the sample was crystalline and conformed to Form II. Its HPLC purity was determined to be 99.78 area %. […] (onset temperature) in DSC were observed. […] Form II is the stable form of compound of Formula III.
# [3] = Approximate solubility of starting material at RT in 20 solvents
# Method: as §1
# The approximate solubility of compound of Formula II (starting material) was determined at RT in 20 different solvents. Approximately 2 mg of the material were added into a 2-mL glass vial. Solvents were then added step into the vials until the solids were dissolved or a total volume of 1 mL was reached (Note: this is not a thermodynamic solubility estimation; vortex and sonication were applied in between each solvent addition to accelerate the dissolution). Results summarized in Table 5-1 were used to guide the solvent selection for the polymorph screening. Beginning with the starting material, polymorph screening experiments were set up using methods of Slurry at different temperatures, Slow Cooling, Liquid and Solid Vapor Diffusions, Slow Evaporation, Anti-Solvent Addition, and Ionic Liquid. No new polymorphs were observed during the screening. Type X and Form X are used interchangeably.
# [4] = DVS test of compound of Formula I
# [5] = Long-term stability study of compound of Formula I, 25° C./60% RH
# Method: Long-term and accelerated stability studies were performed as below using the compound of Formula I prepared as described in Example 2.1.
# Tests include appearance, purity by HPLC, assay by HPLC, chiral purity by HPLC, and water by KF titration. […]
# [6] = Heat and light stressed stability of compound of Formula I in 95/5 (v/v) acetonitrile/isopropanol solution; details: for Purity, Chemical / Purity, Chiral: solution
# Method: In addition, the stressed stability in 95/5 (v/v) acetonitrile /isopropanol solutions was also evaluated (e.g., during the SMB separation and successive work-up). Samples were stored under two different conditions over a period of 10 days: exposed to light at room temperature and in an oven at 60° C.
# [7] = Wet cake drying study on compound of Formula II
# Method: The wet cake drying study on compound of Formula II was carried out on a sample (98.67% purity of compound of Formula II) in an open dish held at 40° C. under vacuum. The sample was analyzed after one week (98.79% purity of compound of Formula II) and since the sample was stable, the study was extended another month. […] (98.74% purity of compound of Formula II).
# [8] = organic solvent or mixture, ACN
# [9] = organic solvent or mixture, Acetone
# [10] = organic solvent or mixture, Cyclohexane
# [11] = organic solvent or mixture, DCM
# [12] = organic solvent or mixture, DMF
# [13] = organic solvent or mixture, DMSO
# [14] = organic solvent or mixture, EtOAc
# [15] = organic solvent or mixture, EtOH
# [16] = organic solvent or mixture, IPA
# [17] = organic solvent or mixture, IPAc
# [18] = organic solvent or mixture, MIBK
# [19] = organic solvent or mixture, MTBE
# [20] = organic solvent or mixture, MeOH
# [21] = organic solvent or mixture, MeTHF
# [22] = organic solvent or mixture, NMP
# [23] = organic solvent or mixture, Pentane
# [24] = organic solvent or mixture, Toluene
# [25] = organic solvent or mixture, n-Butyl Acetate
# [26] = organic solvent or mixture, n-Heptane
smiles,measurement,setting,value
"CCCCC1(CCCC)CS(=O)(=O)c2ccc(N(C)C)cc2[C@@H](c2ccc(O)cc2)[C@H]1O [Form X, (4R,5R)-3,3-dibutyl-7-(dimethylamino)-4-hydroxy-5-(4-hydroxyphenyl)-2,3,4,5-tetrahydrobenzo[b]thiepine 1,1-dioxide]",Relative stability of solid form in polymorph screening,[1],most stable form
"CCCCC1(CCCC)CS(=O)(=O)c2ccc(N(C)C)cc2[C@@H](c2ccc(OC)cc2)[C@H]1O [Form B, (4R,5R)-3,3-dibutyl-7-(dimethylamino)-4-hydroxy-5-(4-methoxyphenyl)-2,3,4,5-tetrahydrobenzo[b]thiepine 1,1-dioxide]",Solid form after air-drying of the wet cake (XRPD),[1]; air-dried overnight,converted back to Form A
"CCCCC1(CCCC)CS(=O)(=O)c2ccc(N(C)C)cc2[C@@H](c2ccc(OCc3ccc(C[N+]45CCN(CC4)CC5)cc3)cc2)[C@H]1O.[Cl-] [Form II, 1-(4-((4-((4R,5R)-3,3-dibutyl-7-(dimethylamino)-4-hydroxy-1,1-dioxido-2,3,4,5-tetrahydrobenzo[b]thiepin-5-yl)phenoxy)methyl)benzyl)-1,4-diazabicyclo[2.2.2] octan-1-ium chloride]",Stability of solid form,[2],stable form
"CCCCC1(CCCC)CS(=O)(=O)c2ccc(N(C)C)cc2[C@@H](c2ccc(OC)cc2)[C@H]1O [Formula I, (4R,5R)-3,3-dibutyl-7-(dimethylamino)-4-hydroxy-5-(4-methoxyphenyl)-2,3,4,5-tetrahydrobenzo[b]thiepine 1,1-dioxide]",solubility,[3]; [8],> 44 mg/mL
same,solubility,[3]; [9],> 54 mg/mL
same,solubility,[3]; [10],< 2 mg/mL
same,solubility,[3]; [11],> 58 mg/mL
same,solubility,[3]; [12],> 48 mg/mL
same,solubility,[3]; [13],> 50 mg/mL
same,solubility,[3]; [14],> 40 mg/mL
same,solubility,[3]; [15],27 to 54 mg/mL
same,solubility,[3]; [16],7.3 to 22 mg/mL
same,solubility,[3]; [17],24 to 48 mg/mL
same,solubility,[3]; [18],> 50 mg/mL
same,solubility,[3]; [19],9.3 to 28 mg/mL
same,solubility,[3]; [20],29 to 58 mg/mL
same,solubility,[3]; [21],> 56 mg/mL
same,solubility,[3]; [22],> 46 mg/mL
same,solubility,[3]; [23],< 2.7 mg/mL
same,solubility,[3]; [24],> 54 mg/mL
same,solubility,[3]; [25],> 56 mg/mL
same,solubility,[3]; [26],< 2.8 mg/mL
same,solubility,"[3]; water, H2O",< 2.3 mg/mL
same,Form transition before and after DVS test,[4],no form transition observed
same,Hygroscopicity by DVS,[4],Non-hygroscopic
same,"Appearance (Color, morphology)",[5]; 0 months,Off-white
same,HPLC Assay,[5]; 0 months,95.5% w/w
same,HPLC Purity,[5]; 0 months,99.6% a/a
same,HPLC Purity - Chiral,[5]; 0 months,100.0% a/a
same,Water by KF Titration,[5]; 0 months,<0.1% w/w
same,"Appearance (Color, morphology)",[5]; 3 months,Off-white
same,HPLC Assay,[5]; 3 months,96.3% w/w
same,HPLC Purity,[5]; 3 months,99.9% a/a
same,HPLC Purity - Chiral,[5]; 3 months,100.0% a/a
same,Water by KF Titration,[5]; 3 months,<0.1% w/w
same,"Appearance (Color, morphology)",[5]; 6 months,Off-white
same,HPLC Assay,[5]; 6 months,96.4% w/w
same,HPLC Purity,[5]; 6 months,99.8% a/a
same,HPLC Purity - Chiral,[5]; 6 months,100.0% a/a
same,Water by KF Titration,[5]; 6 months,<0.1% w/w
same,"Appearance (Color, morphology)",[5]; 12 months,Off-white
same,HPLC Assay,[5]; 12 months,96.5% w/w
same,HPLC Purity,[5]; 12 months,99.8% a/a
same,HPLC Purity - Chiral,[5]; 12 months,100.0% a/a
same,Water by KF Titration,[5]; 12 months,<0.1% w/w
same,Stability (chemical and chiral purity) for SMB operation and work-up,"[6]; 95/5 (v/v) acetonitrile/isopropanol, 10 days, light at RT or 60° C.",adequate stability
same,"Purity, Chemical","[6]; RT (light), Day 0",99.4 % a/a
same,"Purity, Chiral","[6]; RT (light), Day 0",99.6 % a/a
same,"Purity, Chemical","[6]; RT (light), Day 3",99.4 % a/a
same,"Purity, Chiral","[6]; RT (light), Day 3",99.6 % a/a
same,"Purity, Chemical","[6]; RT (light), Day 7",99.4 % a/a
same,"Purity, Chiral","[6]; RT (light), Day 7",99.7 % a/a
same,"Purity, Chemical","[6]; RT (light), Day 10",99.4 % a/a
same,"Purity, Chiral","[6]; RT (light), Day 10",99.4 % a/a
same,"Purity, Chemical","[6]; T = 60° C., Day 0",99.3 % a/a
same,"Purity, Chiral","[6]; T = 60° C., Day 0",99.7 % a/a
same,"Purity, Chemical","[6]; T = 60° C., Day 3",98.7 % a/a
same,"Purity, Chiral","[6]; T = 60° C., Day 3",99.5 % a/a
same,"Purity, Chemical","[6]; T = 60° C., Day 7",98.5 % a/a
same,"Purity, Chiral","[6]; T = 60° C., Day 7",99.8 % a/a
same,"Purity, Chemical","[6]; T = 60° C., Day 10",98.5 % a/a
same,"Purity, Chiral","[6]; T = 60° C., Day 10",99.7 % a/a
"CCCCC1(CCCC)CS(=O)(=O)c2ccc(N(C)C)cc2[C@@H](c2ccc(O)cc2)[C@H]1O [Formula II, (4R,5R)-3,3-dibutyl-7-(dimethylamino)-4-hydroxy-5-(4-hydroxyphenyl)-2,3,4,5-tetrahydrobenzo[b]thiepine 1,1-dioxide]",solubility,[3]; [8],2.9 to 9.7 mg/mL
same,solubility,[3]; [9],26 to 52 mg/mL
same,solubility,[3]; [10],< 2 mg/mL
same,solubility,[3]; [11],8.7 to 26 mg/mL
same,solubility,[3]; [12],> 40 mg/mL
same,solubility,[3]; [13],> 44 mg/mL
same,solubility,[3]; [14],20 to 40 mg/mL
same,solubility,[3]; [15],2.7 to 9.3 mg/mL
same,solubility,[3]; [16],2.6 to 8.7 mg/mL
same,solubility,[3]; [17],7.7 to 23 mg/mL
same,solubility,[3]; [18],21 to 43 mg/mL
same,solubility,[3]; [19],2.4 to 8 mg/mL
same,solubility,[3]; [20],7.3 to 22 mg/mL
same,solubility,[3]; [21],21 to 42 mg/mL
same,solubility,[3]; [22],> 44 mg/mL
same,solubility,[3]; [23],< 2.7 mg/mL
same,solubility,[3]; [24],< 2.8 mg/mL
same,solubility,[3]; [25],8.3 to 25 mg/mL
same,solubility,[3]; [26],< 2 mg/mL
same,solubility,"[3]; water, H2O",< 2 mg/mL
same,Purity of compound of Formula II,"[7]; open dish, 40° C. under vacuum, after one week",98.79%
same,Purity of compound of Formula II,"[7]; open dish, 40° C. under vacuum, study extended another month",98.74%
same,Hold time of the solid,[7]; under vacuum at 40° C.,at least a month
same,Purity of compound of Formula II,[7]; wet cake sample at start of study,98.67%
"CCCCC1(CCCC)CS(=O)(=O)c2ccc(N(C)C)cc2[C@@H](c2ccc(OC)cc2)[C@H]1O [Form A, (4R,5R)-3,3-dibutyl-7-(dimethylamino)-4-hydroxy-5-(4-methoxyphenyl)-2,3,4,5-tetrahydrobenzo[b]thiepine 1,1-dioxide]",Relative stability of solid form in polymorph screening,[1],most stable form
